Assay results: patent publication US20090062400A1 (priority 2007, published 2009)

Experiments:
[1] = rats
Experimental: Rats were sacrificed 2-3 hours after last administration. According to preliminary experiment, in order to obtain enough substance for MAO and protein analysis, 4 retinas (from 2 rats) were combined into one sample, (3 retina samples for MAO per each dose groups). The 6 brains and 6 livers were analyzed separately.

[2] = test system: retinal ganglion cells (RGCs); conditions: Lewis rats, subcutaneous injection, single or repeated (treatment and prevention protocols)
retinal ganglion cells [3] = conditions: rats, rasagiline in the drinking water
From the text: Chronic, moderately elevated IOP is produced unilaterally by cautery of three episcleral vessels; the contralateral eye served as the control. To perform the cautery, sutures are placed in the lids to keep the eye open and in the bulbar conjunctiva to manipulate the globe. Three of the four to five major trunks formed by limbal-derived veins are exposed at the equator of the eye by incising the conjunctiva. Each vessel is lifted with a small muscle hook and cauterized by direct application of an ophthalmic, disposable cautery against the muscle hook. Immediate retraction and absence of bleeding of the cauterized ends of the vessels are noted as successful cauterization. After surgery, eyes are treated topically with bacitracin-neomycin-polymyxin for a few days during recovery.
One group is treated with rasagiline, in the drinking water, for a period of time. Another group is not treated with rasagiline, but receives drinking water on the same schedule. Once a month, each animal is anesthetized and IOP is determined bilaterally. The animals are awake within 15 minutes of the IOP measurement. On any given eye, three to five tonometer readings are taken and averaged. […]
Labeled retinal ganglion cells are counted using fluorescence microscopy in 12 fields of the retina.

retinal ganglion cells [4] = conditions: adult rats, rasagiline before intravitreal SSP
Experimental: The effect of rasagiline on RGC survival is tested in a rat model of RGC survival.
In this well-established model it is used to induce apoptosis of retinal ganglion cells.
Adult rats are used in all rat experiments.
Rats receive a dose of intravitreal SSP in PBS. Animals are imaged immediately and up to 6 h, after which they are sacrificed for histology.
To examine the effect of rasagiline on the survival of RGCs, one group of rats are treated with rasagiline for a period of time before SSP. A further group of naïve rats receives no rasagiline.
The animal is positioned before the cLSO so that the interior of the eye is imaged. An Argon laser wavelength of 488 nm is focused into a small spot and scanned across the retina by a pair of mirrors to excite the administered annexin 5-bound fluorophore. The fluorescence is detected by a solid-state photodetector.
For imaging, animals are held in a stereotaxic frame and their pupils dilated. Videos of scanned retinal areas are assessed for fluorescence. All animals have baseline images recorded before receiving intravitreal injections of Alexa Fluor 488-labeled annexin-5. […]
Fluorescent retinas are assessed by using a confocal laser scanning microscope.
The number of stained RGC and annexin 5-labeled apoptotic RGCs are counted with microscopy analysis software.

retinal ganglion cells [5] = conditions: Wistar rats, 0.5 and 3 mg/kg IP once daily, 6 weeks
Experimental: Male Wistar rats weighing 375-400 gm are treated under procedures approved and monitored by the Animal Care Committee of the Tel-Aviv University School of Medicine and following the procedures outlined in the Association for Research in Vision and Opthalmology Statement for the use of animals in ophthalmic and vision research. Animals are housed with a 14 hour light/10 hour dark cycle with standard chow and water ad libitum.
Glaucoma is induced in one eye of rats by using the translimbal laser photocoagulation model developed by Levkovitch-Verbin. This model can produce elevated IOP and typical glaucomatous optic nerve damage in most treated eyes.
In this model, the outflow channels of the rat eye are treated by argon laser at 532 nm. […] IOP is measured with Tonopen XL under the above anaesthesia in both eyes before and immediately after laser treatment and weekly thereafter. Each time ten measurements are obtained on each eye and the mean value is calculated. […]
The volume of administration is 2 ml/kg. […] (calculated for a rat weighing 400 g). […]
Thirty-two (32) images of ×40 magnification from each retina (both eyes for each rat) are photographed using a fluorescent microscope, and the number of surviving retinal ganglion cells are counted for each eye. The number of RGCs in the experimental eye are compared to the fellow control eye to calculated the RGC loss. […]

[6] = test system: retinal ganglion cells (RGCs); conditions: Long Evans rats, IP 30 minutes before and 2 hours after ischemia, then once daily
Experimental: Thirty (30) male pigmented rats (Long Evans) are obtained and divided evenly into 3 groups, (2 test groups and 1 control group) 10 animals in each group. Retinal ischemia is induced by a 100/200-mmHg hyperpressure saline column applied to the eye through a needle for 60 minutes.
For the control group, the vehicle (saline solution) is administered IP 30 minutes before ischemia and 2 hours after ischemia.
Electroretinographic (ERG) measurements of a- and b-wave implicit times and peak amplitudes under scotopic conditions at maximal intensity are taken at baseline (just before ischemia), and 4-7 days after reperfusion.
Sampling of fixed flatmount retinas and histological processing for annexin-5 labeling or TUNEL labeling.

[7] = patients with glaucomatous optic neuropathy, vs placebo
[8] = rasagiline alone; cited from earlier work
[9] = double-blind, placebo-controlled trial; cited from earlier work
[10] = retinal degeneration slow mouse; cited from earlier work

C#CCN[C@@H]1CCc2ccccc21 [Rasagiline, R(+)—N-propargyl-1-aminoindan]
irritation to the eye ([1]; preliminary test performed for 2 days, eye drops): did not cause irritation to the eye | absorption after intraocular administration ([1]; eye drops 0.0165-7.9 mg/kg/day, 10 days): absorbed in all doses | effect in the IOP model (RGC survival) [2]: positive effect | effect in the chronic, moderately elevated IOP model (RGC survival) (retinal ganglion cells [3]): positive effect | effect in the SSP model (RGC apoptosis) (retinal ganglion cells [4]): positive effect | effect in the experimental glaucoma model (retinal ganglion cells [5]): positive effect | ganglion survival in the treated group (retinal ganglion cells [5]): More ganglion survival | recovery of the retinal electric activity and/or number of apoptotic RGCs after transient ischemia [6]: positive effect | atrophy of the optic nerve [7]: reduced atrophy | preservation of the retina and of the structural integrity of the optic nerve [7]: increased preservation | protection against loss of RGCs [7]: increased protection | visual field loss [7]: reduced visual field loss | effectiveness in the ALS mouse model [8]: effective treatment

C#CCN(C)[C@H](C)Cc1ccccc1 [Selegiline]
effectiveness in treating ALS [9]: ineffective

C[C@]12C=CC(=O)C=C1CC[C@@H]1[C@@H]2[C@@H](O)C[C@@]2(C)[C@H]1CC[C@]2(O)C(=O)CO [prednisolone]
effect on retinal degeneration [10]: unsuccessful
